Results on 32 compounds are retold here after patent US20190389843A1, “PYRROLE mTORC INHIBITORS AND USES THEREOF” (Navitor Pharmaceuticals, Inc., priority 2016, published 2019).

The term IC50 denotes the point on the concentration scale where inhibition reaches its midpoint. A lower IC50 goes with inhibition by little substance.

Structures can show the parent of a compound that is named as a salt.

Assay [1] has as its system pS6K1 in MCF7 (measure of mTORC1 activity). Description: AlphaLISA Ultra pS6K1 assay. In kind it is cell-based. To be noted: MCF-7 cells, 2 hours compound incubation. The protocol: (§1) Assay Protocol: • 1. […] 12,000˜16,000 cells will be seeded in 36 μL medium per well. • 2. Change the culture medium with fresh medium and incubate for another 2 hours. • 3. Add 12 μL (4λ) compounds into the cell plate by HAMILTON. Final DMSO concentration is 0.5%. Incubate for 2 hours. • 4. Aspirate 38 μL by HAMILTON, 10 μL rest per well. • 5. Add 10 μL 2× lysis buffer using HAMILTON; total volume in wells is 20 μL. Allow cells to shake for 30 min. Cover plate by plastic foil and store plate at −80° C. up to analysis. • 6. […] Add 5 ul acceptor beads into assay plate and incubation for 2 hours • 8. Add 5 ul donor beads and incubation for 2 hours • 9. Count the plate by EnSpire Multimode Plate Reader

Assay [2] relates to pAKT in MCF7 (measure of mTORC2 activity). In words: AlphaLISA Ultra pAKT assay. It counts as cell-based. To be noted: MCF-7 cells, 2 hours compound incubation. The protocol:
as §1, with “16,000˜20,000” for “12,000˜16,000”, “(4×)” for “(4λ)”
Background: Bead proximity is the source of the signal in Alpha formats.

For `Cn1cc(CN2CCN(c3ccccc3Cl)CC2)cc1C(=O)N1CCN(c2ccc(F)cc2)CC1` [Example I-135], the IC50 was 1 to 3 µM in assay [1] (Homo sapiens, MCF7, 2 h) and above 3 µM in assay [2] (Homo sapiens, MCF7, 2 h).

For the compound `Cc1c(CN2CCN(c3ccccc3C#N)CC2)cc(C(=O)N2CCN(c3ccccn3)C[C@@H]2C)n1C` [Example I-42], the IC50 was 0.01 to 1 µM in assay [1] (Homo sapiens, MCF7, 2 h) and above 3 µM in assay [2] (Homo sapiens, MCF7, 2 h).

For `Cc1c(CN2CCN(c3ncccc3Cl)CC2)cc(C(=O)N2CCN(c3ccccn3)CC2)n1C` [Example I-2], the 50% inhibitory concentration (IC50) in assay [1] was 1 to 3 µM; in assay [2] it was above 10 µM.

Turning to `Cn1cc(CN2CCN(c3ccccc3Cl)CC2)cc1C(=O)N1CCN(c2cc(F)c(F)c(F)c2)CC1` [Example I-132, (4-((4-(2-Chlorophenyl)piperazin-1-yl)methyl)-1-methyl-1H-pyrrol-2-yl)(4-(3,4,5-trifluorophenyl)piperazin-1-yl)methanone trifluoroacetate salt], the IC50 in assay [1] (Homo sapiens, MCF7, 2 h) is 3 to 10 µM; in assay [2] (Homo sapiens, MCF7, 2 h), above 10 µM.

For the compound `Cc1c(C(C)N2CCN(c3ccccc3Cl)CC2)cc(C(=O)N2CCN(c3ccc(F)cc3)C[C@@H]2C)n1C` (stereo partly drawn) [Example I-46, (4-(1-(4-(2-Chlorophenyl)piperazin-1-yl)ethyl)-1,5-dimethyl-1H-pyrrol-2-yl)((S)-4-(4-fluorophenyl)-2-methylpiperazin-1-yl)methanone], the half-inhibitory concentration (IC50) in assay [1] (Homo sapiens, MCF7, 2 h) was 1 to 3 µM; in assay [2] (Homo sapiens, MCF7, 2 h), above 10 µM.

In the case of `Cc1c(CN2CCN(c3ncccc3Cl)CC2)cc(C(=O)N2CCN(c3ccc(F)c(F)c3)CC2)n1C` [Example I-84, (4-((4-(3-chloropyridin-2-yl)piperazin-1-yl)methyl)-1,5-dimethyl-1H-pyrrol-2-yl)(4-(3,4-difluorophenyl)piperazin-1-yl)methanone], the half-maximal inhibitory concentration (IC50) in assay [1] (Homo sapiens, MCF7, 2 h) is 0.01 to 1 µM; in assay [2] (Homo sapiens, MCF7, 2 h) it was above 3 µM.

In the case of `Cc1ccnc(N2CCN(C(=O)c3cc(CN4CCN(c5ccccc5C#N)CC4)c(C)n3C)CC2)c1` [Example I-62], the IC50 in assay [1] (Homo sapiens, MCF7, 2 h) is 0.01 to 1 µM; in assay [2] (Homo sapiens, MCF7, 2 h), above 3 µM.

Turning to `CCn1cc(CN2CCN(c3ccccc3Cl)CC2)cc1C(=O)N1CCN(c2ccccc2)CC1` [Example I-143], the IC50 in assay [1] (Homo sapiens, MCF7, 2 h) was 0.01 to 1 µM; in assay [2] (Homo sapiens, MCF7, 2 h), above 3 µM.

Consider `COCCn1cc(CN2CCN(c3ccccc3C#N)CC2)cc1C(=O)N1CCN(c2ccccc2C#N)CC1` [Example I-151], for which the half-inhibitory concentration (IC50) in assay [1] (Homo sapiens, MCF7, 2 h) was 1 to 3 µM; in assay [2] (Homo sapiens, MCF7, 2 h) it was above 10 µM.

With `Cc1c(CN2CCN(c3ccccc3N=[N+]=[N-])CC2)cc(C(=O)N2CCN(c3ccccc3)C[C@@H]2C)n1C` [Example I-83, (S)-(4-((4-(2-azidophenyl)piperazin-1-yl)methyl)-1,5-dimethyl-1H-pyrrol-2-yl)(2-methyl-4-phenylpiperazin-1-yl)methanone], the IC50 in assay [1] (Homo sapiens, MCF7, 2 h) is 1 to 3 µM; in assay [2] (Homo sapiens, MCF7, 2 h), above 10 µM.

`Cc1c(CN2CCN(c3ccccc3Cl)CC2)cc(C(=O)N2CCN(c3ncc(F)cn3)C[C@@H]2C)n1C` [Example I-77, (S)-(4-((4-(2-chlorophenyl)piperazin-1-yl)methyl)-1,5-dimethyl-1H-pyrrol-2-yl)(4-(5-fluoropyrimidin-2-yl)-2-methylpiperazin-1-yl)methanone]: the IC50 is 1 to 3 µM in assay [1] (Homo sapiens, MCF7, 2 h) and above 5 µM in assay [2] (Homo sapiens, MCF7, 2 h).

For the compound `Cc1c(CN2CCN(c3ncccc3Cl)CC2)cc(C(=O)N2CCN(c3cccc(C#N)c3)C[C@@H]2C)n1C` [Example I-99, (S)-3-(4-(4-((4-(3-chloropyridin-2-yl)piperazin-1-yl)methyl)-1,5-dimethyl-1H-pyrrole-2-carbonyl)-3-methylpiperazin-1-yl)benzonitrile], the concentration for half-maximal inhibition (IC50) was 0.01 to 1 µM in assay [1] (Homo sapiens, MCF7, 2 h) and above 3 µM in assay [2] (Homo sapiens, MCF7, 2 h).

As to `Cc1cccc(N2CCN(C(=O)c3cc(CN4CCN(c5ccccc5Cl)CC4)c(C#N)n3C)CC2)n1` [Example I-38], the IC50 is 0.01 to 1 µM in assay [1] (Homo sapiens, MCF7, 2 h) and above 3 µM in assay [2] (Homo sapiens, MCF7, 2 h).

Take `O=C(c1cc(CN2CCN(c3ccccc3Cl)CC2)cn1CCCOC1CCCCO1)N1CCN(c2ccccc2)CC1` (stereo not shown) [Example I-147]: the half-maximal inhibitory concentration (IC50) in assay [1] (Homo sapiens, MCF7, 2 h) was 3 to 10 µM; in assay [2] (Homo sapiens, MCF7, 2 h) it was above 10 µM.

As for `Cc1c(CN2CCN(c3ccccc3Cl)CC2)cc(C(=O)N2CCN(c3cc(F)cc(F)c3)C[C@@H]2C)n1C` [Example I-93, (S)-(4-((4-(2-chlorophenyl)piperazin-1-yl)methyl)-1,5-dimethyl-1H-pyrrol-2-yl)(4-(3,5-difluorophenyl)-2-methylpiperazin-1-yl)methanone], the half-maximal inhibitory concentration (IC50) in assay [1] (Homo sapiens, MCF7, 2 h) was 0.01 to 1 µM; in assay [2] (Homo sapiens, MCF7, 2 h) it was above 5 µM.

In the case of `COCCn1cc(CN2CCN(c3ccccc3)CC2)cc1C(=O)N1CCN(c2ccccc2C#N)CC1` [Example I-149], the IC50 in assay [1] (Homo sapiens, MCF7, 2 h) is 3 to 10 µM; in assay [2] (Homo sapiens, MCF7, 2 h), above 10 µM.

With `CCCCn1cc(CN2CCN(c3ccccc3Cl)CC2)cc1C(=O)N1CCN(c2ccccc2)CC1` [Example I-146], the IC50 was 3 to 10 µM in assay [1] (Homo sapiens, MCF7, 2 h) and above 10 µM in assay [2] (Homo sapiens, MCF7, 2 h).

Consider `COCCn1cc(CN2CCN(c3ccccc3C#N)CC2)cc1C(=O)N1CCN(c2ccccc2OC)CC1` [Example I-150], for which the half-maximal inhibitory concentration (IC50) was 3 to 10 µM in assay [1] (Homo sapiens, MCF7, 2 h) and above 10 µM in assay [2] (Homo sapiens, MCF7, 2 h).

As for `Cn1cc(CN2CCN(c3ccccc3C(F)(F)F)CC2)cc1C(=O)N1CCN(c2ccccc2)CC1` [Example I-126, 1-{[1-Methyl-5-(4-phenylpiperazine-1-carbonyl)-1H-pyrrol-3-yl]methyl}-4-[2-(trifluoromethyl)phenyl]piperazine], the half-inhibitory concentration (IC50) was 3 to 10 µM in assay [1] (Homo sapiens, MCF7, 2 h) and above 10 µM in assay [2] (Homo sapiens, MCF7, 2 h).

Regarding `Cc1c(CN2CCN(c3ccccc3Cl)CC2)cc(C(=O)N2CCN(c3cccc4cc[nH]c34)C[C@@H]2C)n1C` [Example I-31, (S)-(4-(1H-indol-7-yl)-2-methylpiperazin-1-yl)(4-((4-(2-chlorophenyl)piperazin-1-yl)methyl)-1,5-dimethyl-1H-pyrrol-2-yl)methanone], the IC50 in assay [1] (Homo sapiens, MCF7, 2 h) is 1 to 3 µM; in assay [2] (Homo sapiens, MCF7, 2 h) it was above 10 µM.

With `Cc1c(CN2CCN(c3ccccc3Cl)CC2)cc(C(=O)N2CCN(c3ccccc3)C[C@@H]2C)n1CCCN` [Example I-29, (S)-(1-(3-aminopropyl)-4-((4-(2-chlorophenyl)piperazin-1-yl)methyl)-5-methyl-1H-pyrrol-2-yl)(2-methyl-4-phenylpiperazin-1-yl)methanone dihydrochloride salt], the IC50 was 3 to 10 µM in assay [1] (Homo sapiens, MCF7, 2 h) and above 10 µM in assay [2] (Homo sapiens, MCF7, 2 h).

For the compound `Cc1c(CN2CCN(c3ccccc3Cl)CC2)cc(C(=O)N2CCN(c3cc(F)ccc3C#N)CC2)n1C` [Example I-85, 2-(4-(4-((4-(2-Chlorophenyl)piperazin-1-yl)methyl)-1,5-dimethyl-1H-pyrrole-2-carbonyl)piperazin-1-yl)-4-fluorobenzonitrile], the 50% inhibitory concentration (IC50) in assay [1] (Homo sapiens, MCF7, 2 h) was 0.01 to 1 µM; in assay [2] (Homo sapiens, MCF7, 2 h) it was above 3 µM.

`Cn1c(C(=O)N2CCN(c3ccccc3)CC2)cc(CN2CCN(c3ccccc3C#N)CC2)c1C#N` [Example I-39]: the half-inhibitory concentration (IC50) in assay [1] (Homo sapiens, MCF7, 2 h) is 0.01 to 1 µM; in assay [2] (Homo sapiens, MCF7, 2 h), above 10 µM.

`Cc1c(CN2CCN(c3ccccc3C#N)CC2)cc(C(=O)N2CCN(c3ccccc3)CC2)n1C` [Example I-54]: the IC50 is 0.01 to 1 µM in assay [1] (Homo sapiens, MCF7, 2 h) and above 1 µM in assay [2] (Homo sapiens, MCF7, 2 h).

As for `Cc1c(CN2CCN(c3ccccc3Cl)CC2)cc(C(=O)N2CCN(c3ccc4[nH]ccc4c3)C[C@@H]2C)n1C` [Example I-33, (S)-(4-(1H-indol-5-yl)-2-methylpiperazin-1-yl)(4-((4-(2-chlorophenyl)piperazin-1-yl)methyl)-1,5-dimethyl-1H-pyrrol-2-yl)methanone trifluoroacetate salt], the half-inhibitory concentration (IC50) in assay [1] (Homo sapiens, MCF7, 2 h) was 1 to 3 µM; in assay [2] (Homo sapiens, MCF7, 2 h) it was above 10 µM.

As to `Cn1cc(CN2CCC(Nc3ccccc3Cl)CC2)cc1C(=O)N1CCN(c2ccc(F)cc2)CC1` [Example I-130], the concentration for half-maximal inhibition (IC50) is 1 to 3 µM in assay [1] (Homo sapiens, MCF7, 2 h) and above 10 µM in assay [2] (Homo sapiens, MCF7, 2 h).

`Cc1c(CN2CCN(c3ccccc3C#N)CC2)cc(C(=O)N2CCN(c3cc(F)c(F)cc3C#N)CC2)n1C` [Example I-4]: the IC50 in assay [1] (Homo sapiens, MCF7, 2 h) is 0.01 to 1 µM; in assay [2] (Homo sapiens, MCF7, 2 h) it was above 1 µM.

`COCCn1cc(CN2CCN(c3ccccc3Cl)CC2)cc1C(=O)N1CCN(c2ccc(F)cc2)CC1` [Example I-140]: the 50% inhibitory concentration (IC50) in assay [1] (Homo sapiens, MCF7, 2 h) was 1 to 3 µM; in assay [2] (Homo sapiens, MCF7, 2 h), above 10 µM.

For the compound `Cn1cc(CN2CCN(c3ccccc3C#N)CC2)cc1C(=O)N1CCN(c2ccc(F)cc2)CC1` [Example I-73], the half-inhibitory concentration (IC50) in assay [1] (Homo sapiens, MCF7, 2 h) is 3 to 10 µM; in assay [2] (Homo sapiens, MCF7, 2 h) it was above 10 µM.

For `Cc1c(CN2CCN(c3ccccc3C#N)CC2)cc(C(=O)N2CCCN(c3cccc(C#N)c3)CC2)n1C` [Example I-45, 2-(4-((5-(4-(3-cyanophenyl)-1,4-diazepane-1-carbonyl)-1,2-dimethyl-1H-pyrrol-3-yl)methyl)piperazin-1-yl)benzonitrile], the IC50 in assay [1] (Homo sapiens, MCF7, 2 h) is 1 to 3 µM; in assay [2] (Homo sapiens, MCF7, 2 h) it was above 10 µM.

For `Cc1c(CN2CCN(c3ccccc3Cl)CC2)cc(C(=O)N2CCN(c3ccccc3C#N)C[C@@H]2C)n1C` [Example I-100], the IC50 is 0.01 to 1 µM in assay [1] (Homo sapiens, MCF7, 2 h) and above 10 µM in assay [2] (Homo sapiens, MCF7, 2 h).

Regarding `C[C@H]1CN(c2cccc(C#N)c2)CCN1C(=O)c1cc(CN2CCN(c3ccccc3Cl)CC2)cn1C` [Example I-123, (S)-3-(4-(4-((4-(2-chlorophenyl)piperazin-1-yl)methyl)-1-methyl-1H-pyrrole-2-carbonyl)-3-methylpiperazin-1-yl)benzonitrile], the IC50 in assay [1] (Homo sapiens, MCF7, 2 h) is 0.01 to 1 µM; in assay [2] (Homo sapiens, MCF7, 2 h) it was above 1 µM.
